{"source": "patent US10453555B2", "about": "“Parameterizing cell-to-cell regulatory heterogeneities via stochastic transcriptional profiles” (University of Virginia Patent Foundation, priority 2015, dated 2019)", "key": {"[1]": {"system": "p110δ", "assay": "IC87114 inhibitor validation: pAkt immunoblotting after lysophosphatidic acid stimulation", "assay_type": "cell-based, human", "conditions": "MCF10A-5E cells, 20 μM IC87114 pre-treatment for one hour, 10 μM lysophosphatidic acid for five minutes", "experimental": "For p110δ inhibitor experiments, 20 μM IC87114 (Calbiochem) was added to the assay medium and replaced every four days. IC87114 inhibitor validation was performed as follows. MCF10A-5E cells were plated in 6-well dishes and cultured in serum-free medium overnight. Wells were pre-treated with or without 20 μM IC87114 (Calbiochem) for one hour and then stimulated with 10 μM lysophosphatidic acid (Sigma-Aldrich) for five minutes. Cells were lysed as previously described (Wang et al. (2011) Proc Natl Acad U S A 108(40):E803-812), and lysates were probed for pAkt levels by immunoblotting.\nImmunoblotting was performed as follows. 30-50 μg of clarified cell extract was separated on an 8% or 10% SDS-PAGE gel and transferred to PVDF (Millipore). Membranes were blocked in 0.5×Odyssey blocking buffer (Licor) for one hour and incubated overnight at 4° C. in 0.5×Odyssey blocking buffer with 0.1% Tween containing one of the following primary antibodies: anti-p110δ (1:500; Santa Cruz Biotechnology) or anti-pAkt Ser473 (1:1000; Cell Signaling). Additionally, chicken anti-tubulin (1:20000; Abeam) was added to each primary solution as a loading control. […]"}, "[2]": {"system": "MCF10A-5E cells", "assay": "Proliferation of acini in 3D culture (phospho-Rb whole-mount immunofluorescence)", "assay_type": "cell-based, human", "conditions": "shGFP control cells + 20 μM IC87114, replaced every four days", "experimental": "We next asked whether PIK3CD was specifically important for normal acinar morphogenesis. To eliminate the very-rare PIK3CD^hi subpopulation, p110δ was perturbed by two independent methods: RNA interference and the p110δ-specific small-molecule inhibitor, IC87114 (Knight et al. (2006) Cell 125(4):733-747) (FIG. 18A and FIG. 21). […] Primers were annealed at 95° C. in annealing buffer (10 mM Tris-HCl, 100 mM NaCl, 1 mM EDTA) for 5 min on a thermocycler and cooled slowly to room temperature by unplugging the instrument. Annealed primers were phosphorylated in vitro with T4 polynucleotide kinase (New England Biolabs) and then cloned into pLKO.1 puro (Moffat et al. (2006) Cell 124(6):1283-1298) that had been digested with EcoRI and AgeI. Lentiviruses were packaged and transduced into MCF10A-5E cells and selecting with 2 μg/ml puromycin as previously described (Wang et al. (2011) Proc Natl Acad Sci U S A 108(40):E803-812) to produce shGFP and shPIK3CD cell lines. MCF10A (shGFP, and shPIK3CD) cell lines were cultured in 3D as previously described (Debnath et al. (2003) Methods 30(3):256-268). […]\nWhole-mount immunofluorescence of shGFP and shPIK3CD cultures was performed as previously described (Wang et al. (2011) Proc Natl Acad U S A 108(40):E803-812). […] Samples were scored for pRb-positive acini as before (Wang et al. (2011) Proc Natl Acad Sci U S A 108(40):E803-812)."}}, "data": [{"smiles": "Cc1ccccc1-n1c(Cn2cnc3c(N)ncnc32)nc2cccc(C)c2c1=O", "note": "[IC87114]", "values": [{"measurement": "Akt phosphorylation (pAkt Ser473 levels) stimulated by p110δ", "setting": "[1]", "result": "inhibits Akt phosphorylation"}, {"measurement": "proliferating (pRb-positive) acini", "setting": "[2]", "result": "sustained proliferation"}]}]}
